Results as given in ChEMBL document CHEMBL1126516, “Synthesis, biological activity and electrostatic properties of 3-[2-(dimethylamino)ethyl]-5-[(3-amino-1,2,4-thiadiazol-5-yl)methyl]-1H-indole, a novel 5-HT1D receptor agonist” (Bioorg Med Chem Lett, 1993).
pEC50: −log10 of the molar value.

species: Oryctolagus cuniculus; test: Compound was tested for the contraction of New Zealand white rabbit saphenous vein; type: functional

| SMILES | pEC50 |
| --- | --- |
| CNS(=O)(=O)Cc1ccc2[nH]cc(CCN(C)C)c2c1 | 6.20 |
| CN(C)CCc1c[nH]c2ccc(Cc3nc(N)ns3)cc12 | 8.00 |
| CN(C)CCc1c[nH]c2ccc(Cc3nc(N)no3)cc12 | 6.30 |
| NCCc1c[nH]c2ccc(O)cc12 [SEROTONIN] | 6.80 |
